The values below come from US10407431B2, “Compounds and compositions as toll-like receptor 7 agonists” (NOVARTIS AG, priority 2014, dated 2019).

human TLR7, sequence (Q9NYK1 27-1049): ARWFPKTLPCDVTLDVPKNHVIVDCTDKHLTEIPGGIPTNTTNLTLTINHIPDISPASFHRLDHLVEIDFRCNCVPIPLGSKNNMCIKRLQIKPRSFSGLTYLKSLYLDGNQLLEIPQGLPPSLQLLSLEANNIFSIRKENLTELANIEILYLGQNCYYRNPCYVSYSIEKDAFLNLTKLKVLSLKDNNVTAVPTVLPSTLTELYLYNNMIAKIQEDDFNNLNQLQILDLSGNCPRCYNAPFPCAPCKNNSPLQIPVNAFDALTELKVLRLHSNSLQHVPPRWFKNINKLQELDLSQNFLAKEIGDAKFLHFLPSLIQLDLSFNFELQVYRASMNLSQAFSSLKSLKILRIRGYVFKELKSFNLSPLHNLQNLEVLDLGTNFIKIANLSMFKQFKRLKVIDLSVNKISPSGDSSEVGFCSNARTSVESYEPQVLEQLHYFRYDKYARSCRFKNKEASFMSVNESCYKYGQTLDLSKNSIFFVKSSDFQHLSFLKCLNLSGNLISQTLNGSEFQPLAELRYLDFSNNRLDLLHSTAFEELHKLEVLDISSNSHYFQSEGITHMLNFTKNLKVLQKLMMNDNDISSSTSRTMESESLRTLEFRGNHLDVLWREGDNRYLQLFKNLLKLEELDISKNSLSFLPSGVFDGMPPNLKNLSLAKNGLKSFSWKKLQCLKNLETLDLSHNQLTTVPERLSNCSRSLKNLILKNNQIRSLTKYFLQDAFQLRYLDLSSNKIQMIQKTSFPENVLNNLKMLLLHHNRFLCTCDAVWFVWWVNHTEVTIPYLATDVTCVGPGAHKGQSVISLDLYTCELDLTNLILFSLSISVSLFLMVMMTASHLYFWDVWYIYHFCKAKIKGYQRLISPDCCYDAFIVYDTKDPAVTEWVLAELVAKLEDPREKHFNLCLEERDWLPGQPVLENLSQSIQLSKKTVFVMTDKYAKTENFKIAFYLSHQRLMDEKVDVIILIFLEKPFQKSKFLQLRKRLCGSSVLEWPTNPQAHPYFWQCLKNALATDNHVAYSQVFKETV

For the assay, the target named is human TLR7 (Homo sapiens (Human), UniProt Q9NYK1). As to the kind of experiment: Reporter Gene Assay (HEK293 stably transfected with human TLR7 and NF-kB-driven luciferase reporter). The settings on record: HEK293 cells stably transfected with human TLR7 and pNifty-Luciferase; 7 hours incubation; EC50 relative to the activity of resiquimod set to 100%. The class given is cell-based. The protocol:
As a control assay, normal Hek293 transfected with pNifty-Luc were used. […] Bright-Glo™ Luciferase assay buffer and substrate were supplied by Promega #E263B and #E264B (assay substrate and buffer respectively). 384 well clear-bottom plates were supplied by Greiner bio-one (#789163-G) and were custom bar-coded plates.
Cells were plated at 25,000 cells/well in 384-well plates in a final volume of 50 μl of media. Cells were allowed to adhere to the plates after overnight (18 hours) culture at 37° C. and 5% CO2. Serially diluted experimental and positive control compounds were then dispensed to each well and incubated for 7 hours at 37° C. and 5% CO2. Cells stimulated with DMSO alone also serve as negative controls. After the incubation, 30 μl of the pre-mix assay buffer and substrate buffer were added to each well according to manufacturer's instructions. The luminescence signal was read on a CLIPR machine with an integration time of 20 seconds per plate.
(In general: In a reporter assay the amount or activity of a reporter protein is the signal.)
By EC50 is commonly meant the concentration at which the effect is half-maximal. `CCCC[C@@H](CO)Nc1nc(N)nc2ccn(Cc3cc(CN4CCNCC4)ccc3OC)c12` [Example 30, (S)-2-((2-amino-5-(2-methoxy-5-(piperazin-1-ylmethyl)benzyl)-5H-pyrrolo[3,2-d]pyrimidin-4-yl)amino)hexan-1-ol] had an EC50 of 0.08 µM. That is a double-digit nanomolar value.
Then `CCCCCNc1nc(N)nc2ccn(Cc3ccc(CC(=O)OCCN4CCN(C)CC4)cc3OC)c12` [Example 21, 2-(4-methylpiperazin-1-yl)ethyl 2-(4-{[2-amino-4-(pentylamino)-5H-pyrrolo[3,2-d]pyrimidin-5-yl]methyl}-3-methoxyphenyl)acetate], with below 0.005 µM.
Then `CCCCCNc1nc(N)nc2ccn(Cc3ccc(CC(=O)OCC(=O)N(CCC)CCC)cc3OC)c12` [Example 19, 2-(dipropylcarbamoyl)methyl 2-(4-{[2-amino-4-(pentylamino)-5H-pyrrolo[3,2-d]pyrimidin-5-yl]methyl}-3-methoxyphenyl)acetate], with 0.2 µM; and `CCCCCNc1nc(N)nc2ccn(Cc3ccc(C(=O)OC)cc3OC)c12` [Example 1, methyl 4-((2-amino-4-(pentylamino)-5H-pyrrolo[3,2-d]pyrimidin-5-yl)methyl)-3-methoxybenzoate], with 0.01 µM; and `CCCCCNc1nc(N)nc2ccn(Cc3ccc(CC(=O)OCCN4CCNCC4)cc3OC)c12` [Example 25, 2-(piperazin-1-yl)ethyl 2-(4-{[2-amino-4-(pentylamino)-5H-pyrrolo[3,2-d]pyrimidin-5-yl]methyl}-3-methoxyphenyl)acetate], with 0.03 µM.
The value for `CCCCCNc1nc(N)nc2ccn(Cc3ccc(CC(=O)OCC(=O)OCc4ccccc4)cc3OC)c12` [Example 18, 2-(benzyloxy)-2-oxoethyl 2-(4-{[2-amino-4-(pentylamino)-5H-pyrrolo[3,2-d]pyrimidin-5-yl]methyl}-3-methoxyphenyl)acetate] was 0.2 µM; that for `CCCCCNc1nc(N)nc2ccn(Cc3cc(CC(=O)OCC(=O)N4CCOCC4)ccc3OC)c12` [Example 9, 2-morpholino-2-oxoethyl 2-(3-((2-amino-4-(pentylamino)-5H-pyrrolo[3,2-d]pyrimidin-5-yl)methyl)-4-methoxyphenyl)acetate] was 0.01 µM; that for `CCCCCNc1nc(N)nc2ccn(Cc3cc(C(=O)OC)ccc3OC)c12` [Example 4, methyl 3-((2-amino-4-(pentylamino)-5H-pyrrolo[3,2-d]pyrimidin-5-yl)methyl)-4-methoxybenzoate] was below 0.005 µM.
`CCCC[C@@H](CO)Nc1nc(N)nc2ccn(Cc3ccc(CC(=O)OCC(=O)N4CCOCC4)cc3OC)c12` [Example 13, (S)-2-morpholino-2-oxoethyl 2-(4-((2-amino-4-((1-hydroxyhexan-2-yl)amino)-5H-pyrrolo[3,2-d]pyrimidin-5-yl)methyl)-3-methoxyphenyl)acetate]: the midpoint of the response, the EC50, lay at 0.01 µM.
The value for `CCCCCNc1nc(N)nc2ccn(Cc3cc(OCC(=O)OCCN(C)C)ccc3OC)c12` [Example 26, 2-(dimethylamino)ethyl 2-(3-{[2-amino-4-(pentylamino)-5H-pyrrolo[3,2-d]pyrimidin-5-yl]methyl}-4-methoxyphenoxy)acetate] was 0.3 µM; that for `CCCC[C@@H](CO)Nc1nc(N)nc2ccn(Cc3ccc(CCC(=O)OCC(=O)N4CCOCC4)cc3OC)c12` [Example 15, (S)-2-morpholino-2-oxoethyl 3-(4-((2-amino-4-((1-hydroxyhexan-2-yl)amino)-5H-pyrrolo[3,2-d]pyrimidin-5-yl)methyl)-3-methoxyphenyl)propanoate] was 0.02 µM.
Then `CCCC[C@@H](CO)Nc1nc(N)nc2ccn(Cc3cc(CC(=O)OCC(=O)N4CCOCC4)ccc3OC)c12` [Example 14, (S)-2-morpholino-2-oxoethyl 2-(3-((2-amino-4-((1-hydroxyhexan-2-yl)amino)-5H-pyrrolo[3,2-d]pyrimidin-5-yl)methyl)-4-methoxyphenyl)acetate], with 0.01 µM.
Then `CCCCCNc1nc(N)nc2ccn(Cc3ccc(C(=O)OCCOCCN(C)C)cc3OC)c12` [Example 3, 2-(2-(dimethylamino)ethoxy)ethyl 4-((2-amino-4-(pentylamino)-5H-pyrrolo[3,2-d]pyrimidin-5-yl)methyl)-3-methoxybenzoate], with 0.02 µM; and `CCCCCNc1nc(N)nc2ccn(Cc3ccc(CC(=O)OCC(=O)N4CCOCC4)cc3OC)c12` [Example 10, 2-morpholino-2-oxoethyl 2-(4-((2-amino-4-(pentylamino)-5H-pyrrolo[3,2-d]pyrimidin-5-yl)methyl)-3-methoxyphenyl)acetate], with 0.006 µM; and `CCCCCNc1nc(N)nc2ccn(Cc3cc(N)ccc3OC)c12` [Example 34, 5-(5-amino-2-methoxybenzyl)-N4-pentyl-5H-pyrrolo[3,2-d]pyrimidine-2,4-diamine], with 0.001 µM.
Compound `CCCCCNc1nc(N)nc2ccn(Cc3cc(CCC(=O)OCC)ccc3OC)c12` [Example 6, ethyl 3-(3-((2-amino-4-(pentylamino)-5H-pyrrolo[3,2-d]pyrimidin-5-yl)methyl)-4-methoxyphenyl)propanoate] registered a concentration giving a half-maximal response (EC50) of 0.03 µM. Against the preceding compound, the EC50 is about 30-fold higher.
The value for `CCCCCNc1nc(N)nc2ccn(Cc3cc(CN4CCNCC4)ccc3OC)c12` [Example 31, 5-(2-methoxy-5-(piperazin-1-ylmethyl)benzyl)-N4-pentyl-5H-pyrrolo[3,2-d]pyrimidine-2,4-diamine] was 0.02 µM; that for `CCCC[C@@H](CO)Nc1nc(N)nc2ccn(Cc3cc(CCC(=O)OCC(=O)N4CCOCC4)ccc3OC)c12` [Example 12, (S)-2-morpholino-2-oxoethyl 3-(3-((2-amino-4-((1-hydroxyhexan-2-yl)amino)-5H-pyrrolo[3,2-d]pyrimidin-5-yl)methyl)-4-methoxyphenyl)propanoate] was 0.03 µM; that for `CCCCCNc1nc(N)nc2ccn(Cc3cc(/C=C/C(=O)OCC(=O)N4CCOCC4)ccc3OC)c12` [Example 16, 2-(morpholin-4-yl)-2-oxoethyl (2E)-3-(3-{[2-amino-4-(pentylamino)-5H-pyrrolo[3,2-d]pyrimidin-5-yl]methyl}-4-methoxyphenyl)prop-2-enoate] was below 0.005 µM.
The value for `CCCCCNc1nc(N)nc2ccn(Cc3ccc(C(=O)OCCN(C)C)cc3OC)c12` [Example 2, 2-(dimethylamino)ethyl 4-((2-amino-4-(pentylamino)-5H-pyrrolo[3,2-d]pyrimidin-5-yl)methyl)-3-methoxybenzoate] was below 0.005 µM; that for `CCCCCNc1nc(N)nc2ccn(Cc3ccc(CC(=O)OCCO)cc3OC)c12` [Example 22, 2-hydroxyethyl 2-(4-{[2-amino-4-(pentylamino)-5H-pyrrolo[3,2-d]pyrimidin-5-yl]methyl}-3-methoxyphenyl)acetate] was below 0.006 µM; that for `CCCCCNc1nc(N)nc2ccn(Cc3cc(CCC(=O)OCC(=O)N4CCOCC4)ccc3OC)c12` [Example 17, 2-(morpholin-4-yl)-2-oxoethyl 3-(3-{[2-amino-4-(pentylamino)-5H-pyrrolo[3,2-d]pyrimidin-5-yl]methyl}-4-methoxyphenyl)propanoate] was 0.05 µM.
With `CCCC[C@@H](CO)Nc1nc(N)nc2ccn(Cc3ccc(CN4CCNCC4)cc3OC)c12` [Example 33, (S)-2-((2-amino-5-(2-methoxy-4-(piperazin-1-ylmethyl)benzyl)-5H-pyrrolo[3,2-d]pyrimidin-4-yl)amino)hexan-1-ol], the half-maximal effective concentration (EC50) came out at 0.007 µM.
The value for `CCCCCNc1nc(N)nc2ccn(Cc3cc(OCC(=O)OCC(=O)N4CCOCC4)ccc3OC)c12` [Example 8, 2-morpholino-2-oxoethyl 2-(3-((2-amino-4-(pentylamino)-5H-pyrrolo[3,2-d]pyrimidin-5-yl)methyl)-4-methoxyphenoxy)acetate] was 0.04 µM; that for `CCCCCNc1nc(N)nc2ccn(Cc3cc(OCC(=O)OCCN4CCOCC4)ccc3OC)c12` [Example 28, 2-(morpholin-4-yl)ethyl 2-(3-{[2-amino-4-(pentylamino)-5H-pyrrolo[3,2-d]pyrimidin-5-yl]methyl}-4-methoxyphenoxy)acetate] was 0.4 µM.
As for `CCCCCNc1nc(N)nc2ccn(Cc3cc(CC(=O)OC)ccc3OC)c12` [Example 5, methyl 2-(3-((2-amino-4-(pentylamino)-5H-pyrrolo[3,2-d]pyrimidin-5-yl)methyl)-4-methoxyphenyl)acetate], the response was half-maximal at 0.01 µM (EC50).
Then `CCCCCNc1nc(N)nc2ccn(Cc3cc(OCC(=O)OCCN4CCNCC4)ccc3OC)c12` [Example 27, 2-(piperazin-1-yl)ethyl 2-(3-{[2-amino-4-(pentylamino)-5H-pyrrolo[3,2-d]pyrimidin-5-yl]methyl}-4-methoxyphenoxy)acetate], with 0.5 µM; and `CCCCCNc1nc(N)nc2ccn(Cc3ccc(CCC(=O)OCC(=O)N4CCOCC4)cc3OC)c12` [Example 11, 2-(morpholin-4-yl)-2-oxoethyl 3-(4-{[2-amino-4-(pentylamino)-5H-pyrrolo[3,2-d]pyrimidin-5-yl]methyl}-3-methoxyphenyl)propanoate], with 0.02 µM; and `CCCCCNc1nc(N)nc2ccn(Cc3ccc(CC(=O)OCCCCN(C)C)cc3OC)c12` [Example 23, 4-(dimethylamino)butyl 2-(4-{[2-amino-4-(pentylamino)-5H-pyrrolo[3,2-d]pyrimidin-5-yl]methyl}-3-methoxyphenyl)acetate], with 0.007 µM.
The value for `CCCCCNc1nc(N)nc2ccn(Cc3ccc(CC(=O)OCCN4CCOCC4)cc3OC)c12` [Example 24, 2-(morpholin-4-yl)ethyl 2-(4-{[2-amino-4-(pentylamino)-5H-pyrrolo[3,2-d]pyrimidin-5-yl]methyl}-3-methoxyphenyl)acetate] was 0.008 µM.
